The values below come from ChEMBL document CHEMBL5725498, “ROR modulators and their uses” (2017).

Test [1] in a line: TH17 Cytokine Inhibition ELISA: Human CD4+ T cells were differentiated to TH17 cells as described in the presence or absence of various concentrations of compounds in a final concentration of 0.1% DMSO in TexMACS medium. Supernatants were collected and stored at −20° C. until they were to be assayed for IL-17A, IL-17F, IL-17AF, IL-21 and/or IL-22 levels as determined by Ready-Set-Go ELISA kits (eBioscience) as per manufacturer's instructions. Endpoint absorbance was read at 450 nm and 570 nm according to manufacturer's instructions (eBioscience) using a microplate reader (Perkin Elmer). The percentage of cytokine inhibition was calculated with reference to DMSO treated cells and the IC50s were determined by GraphPad Prism software and presented in the table below.

In test [2] the target is T1, Nuclear receptor ROR-gamma (Homo sapiens, UniProt P51449).
T1 sequence (P51449 whole entry): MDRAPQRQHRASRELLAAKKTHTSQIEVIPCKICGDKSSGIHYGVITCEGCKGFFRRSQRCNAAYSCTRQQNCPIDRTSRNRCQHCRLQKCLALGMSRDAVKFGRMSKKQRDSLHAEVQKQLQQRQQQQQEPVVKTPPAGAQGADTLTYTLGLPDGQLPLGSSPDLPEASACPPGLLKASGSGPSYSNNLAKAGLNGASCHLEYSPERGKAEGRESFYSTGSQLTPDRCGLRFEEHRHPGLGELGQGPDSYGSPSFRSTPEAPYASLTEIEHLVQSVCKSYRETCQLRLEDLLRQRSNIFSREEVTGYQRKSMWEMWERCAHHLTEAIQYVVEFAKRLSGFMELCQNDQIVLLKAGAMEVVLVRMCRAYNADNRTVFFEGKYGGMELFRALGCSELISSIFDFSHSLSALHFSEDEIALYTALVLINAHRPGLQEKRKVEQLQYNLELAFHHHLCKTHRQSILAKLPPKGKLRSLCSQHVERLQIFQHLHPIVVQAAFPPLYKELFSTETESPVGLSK
The experiment in a line: RORgamma LBD Binding Assay: Compound binding to the human RORγ LBD was assessed using the Human RORγ Assay System (INDIGO Biosciences Inc.) as per manufacturer's instructions. Binding to the RORγ LBD was assessed using gradient concentrations of the indicated compounds in a final concentration of 0.5% DMSO, where IC50s were generated using Graphpad Prism.

What is called IC50 is the concentration that gives 50% inhibition. On to `OC(c1ccc(CBr)cc1)(C(F)(F)F)C(F)(F)F`, for which the IC50 in test [1] was under 10 µM.

`CN(C)C(=O)c1ccc2c(ccc(=O)n2Cc2ccc(C(O)(C(F)(F)F)C(F)(F)F)cc2)c1`: the half-maximal inhibitory concentration (IC50) in test [1] was under 10 µM. Consider `CN(C)C(=O)c1ccc2c(c1)CCC(=O)N2Cc1ccc(C(O)(C(F)(F)F)C(F)(F)F)cc1`, for which the IC50 in test [2] was under 10 µM; in test [1], over 10 µM.
